Test results as given in US12673104B2, “Cleavable polymer drug conjugates” (RS ARASTIRMA EGITIM DANISMANLIK ILAC SANAYI TICARET ANONIM …, priority 2016, dated 2026).

Assay: Pharmacokinetic study (plasma total DTX)
Assay type: in vivo
Details: total DTX in plasma
Protocol: PEGMEMA-DTX conjugates having 50 kDa and 85 kDa molecular weight were subjected to pharmacokinetic testing and its pharmacokinetic profile was compared with that of free DTX.
Pharmacokinetic parameters for total DTX were calculated using the plasma total DTX concentration values of polymer drug conjugates and free DTX. Half-life, volume of distribution (VDβ), clearance (CL), and total area under the curve (AUC total) were calculated.
In order to provide similarity the HPMA-GFLG-DTX polymer was prepared without RGDfK targeting group.

## CC(=O)O[C@@]12CO[C@@H]1C[C@H](O)[C@@]1(C)C(=O)[C@H](O)C3=C(C)[C@@H](OC(=O)[C@H](O)[C@@H](NC(=O)OC(C)(C)C)c4ccccc4)C[C@@](O)([C@@H](OC(=O)c4ccccc4)[C@H]21)C3(C)C [Free DTX, Docetaxel]
  AUC total: 10 ± 3 µg·h/mL
read-out: CL (clearance) (converted)
  clearance: 2.34 mL/min
read-out: Half Life (β) (converted)
  half-life: 187 ± 52.8 min
read-out: VDβ (volume of distribution)
  Vd: 0.664 ± 0.258 L
